Results reported in ChEMBL document CHEMBL3826915, “Design and comparative anticonvulsant activity assessment of CNS-active alkyl-carbamoyl imidazole derivatives” (Bioorg Med Chem, 2016).
Activity calls are given as the source filed them. No cut-off for these calls is given here.

Tests used:
[1] = system: Rattus norvegicus; test: Neurotoxicity in albino Sprague-Dawley rat assessed as behavioral impairment at 30 mg/kg, po after 2 hrs by rotorod test; assay type: toxicity, organism-based; conditions: in vivo
[2] = Protective index, ratio of TD50 for neurotoxicity in ip dosed albino Sprague-Dawley rat to ED50 for anticonvulsant activity in ip dosed subcutaneous metrazol-induced seizure albino Sprague-Dawley rat model; assay type: toxicity, organism-based; conditions: in vivo, read-out: Ratio TD50/ED50
[3] = system: Rattus norvegicus; test: Neurotoxicity in albino Sprague-Dawley rat assessed as behavioral impairment at 30 mg/kg, ip after 2 hrs by rotorod test; assay type: toxicity, organism-based; conditions: in vivo
[4] = Neurotoxicity in ip dosed albino Sprague-Dawley rat assessed as motor impairment by rotorod test; assay type: toxicity, organism-based; conditions: in vivo
[5] = system: Rattus norvegicus; test: Anticonvulsant activity in ip dosed albino Sprague-Dawley rat assessed as protection against subcutaneous metrazol-induced seizures; assay type: functional
[6] = system: Rattus norvegicus; test: Anticonvulsant activity in ip dosed albino Sprague-Dawley rat assessed as protection against subcutaneous metrazol-induced seizures by measuring time to peak effect; assay type: functional
[7] = system: Mus musculus; test: Anticonvulsant activity in ip dosed albino CF1 mouse assessed as protection against 6 Hz current-induced seizures by psychomotor test; assay type: functional
[8] = system: Rattus norvegicus; test: Anticonvulsant activity in albino Sprague-Dawley rat assessed as protection against maximal electroshock-induced seizures at 30 mg/kg, ip after 0.25 hrs; assay type: functional, organism-based
[9] = system: Mus musculus; test: Anticonvulsant activity in ip dosed albino CF1 mouse assessed as protection against maximal electroshock-induced seizures by measuring time to peak effect; assay type: functional
[10] = system: Mus musculus; test: Anticonvulsant activity in albino CF1 mouse assessed as protection against 32 mA current-induced seizure at 30 mg/kg, ip after 2 hrs by 6 Hz psychomotor test; assay type: functional, organism-based
[11] = system: Mus musculus; test: Anticonvulsant activity in ip dosed albino CF1 mouse assessed as protection against subcutaneous metrazol-induced seizures; assay type: functional
[12] = system: Mus musculus; test: Anticonvulsant activity in ip dosed albino CF1 mouse assessed as protection against 6 Hz current-induced seizure by measuring time to peak effect; assay type: functional
[13] = system: Rattus norvegicus; test: Anticonvulsant activity in ip dosed albino Sprague-Dawley rat assessed as protection against maximal electroshock-induced seizures by measuring time to peak effect; assay type: functional
[14] = system: Mus musculus; test: Neurotoxicity in albino CF1 mouse assessed as behavioral impairment at 30 mg/kg, ip after 0.5 hrs by rotorod test; assay type: toxicity, organism-based; conditions: in vivo
[15] = system: Mus musculus; test: Anticonvulsant activity in albino CF1 mouse assessed as protection against 44 mA current-induced seizure at 100 mg/kg, ip after 0.25 hrs by 6 Hz psychomotor test; assay type: functional, organism-based
[16] = system: Rattus norvegicus; test: Neurotoxicity in albino Sprague-Dawley rat assessed as behavioral impairment at 30 mg/kg, po after 0.5 hrs by rotorod test; assay type: toxicity, organism-based; conditions: in vivo
[17] = system: Rattus norvegicus; test: Anticonvulsant activity in ip dosed albino Sprague-Dawley rat assessed as protection against maximal electroshock-induced seizures; assay type: functional
[18] = system: Rattus norvegicus; test: Anticonvulsant activity in albino Sprague-Dawley rat assessed as protection against maximal electroshock-induced seizures at 30 mg/kg, po after 2 hrs; assay type: functional, organism-based
[19] = system: Rattus norvegicus; test: Neurotoxicity in albino Sprague-Dawley rat assessed as behavioral impairment at 30 mg/kg, po after 1 hr by rotorod test; assay type: toxicity, organism-based; conditions: in vivo
[20] = system: Mus musculus; test: Neurotoxicity in albino CF1 mouse assessed as behavioral impairment at 100 mg/kg, ip after 1 hr by rotorod test; assay type: toxicity, organism-based; conditions: in vivo
[21] = system: Mus musculus; test: Neurotoxicity in albino CF1 mouse assessed as behavioral impairment at 100 mg/kg, ip after 2 hrs by rotorod test; assay type: toxicity, organism-based; conditions: in vivo
[22] = system: Rattus norvegicus; test: Neurotoxicity in albino Sprague-Dawley rat assessed as behavioral impairment at 30 mg/kg, ip after 0.25 hrs by rotorod test; assay type: toxicity, organism-based; conditions: in vivo
[23] = Neurotoxicity in ip dosed albino CF1 mouse assessed as motor impairment by rotorod test; assay type: toxicity, organism-based; conditions: in vivo
[24] = system: Rattus norvegicus; test: Neurotoxicity in albino Sprague-Dawley rat assessed as behavioral impairment at 30 mg/kg, ip after 0.5 hrs by rotorod test; assay type: toxicity, organism-based; conditions: in vivo
[25] = system: Rattus norvegicus; test: Neurotoxicity in albino Sprague-Dawley rat assessed as behavioral impairment at 30 mg/kg, po after 0.25 hrs by rotorod test; assay type: toxicity, organism-based; conditions: in vivo
[26] = system: Rattus norvegicus; test: Anticonvulsant activity in albino Sprague-Dawley rat assessed as protection against maximal electroshock-induced seizures at 30 mg/kg, po after 1 hr; assay type: functional, organism-based
[27] = system: Mus musculus; test: Neurotoxicity in albino CF1 mouse assessed as behavioral impairment at 300 mg/kg, ip after 0.5 hrs by rotorod test; assay type: toxicity, organism-based; conditions: in vivo
[28] = system: Mus musculus; test: Neurotoxicity in albino CF1 mouse assessed as behavioral impairment at 100 mg/kg, ip after 0.25 hrs by rotorod test; assay type: toxicity, organism-based; conditions: in vivo
[29] = system: Mus musculus; test: Anticonvulsant activity in albino CF1 mouse assessed as protection against maximal electroshock-induced seizures at 100 mg/kg, ip after 0.5 hrs; assay type: functional, organism-based
[30] = system: Mus musculus; test: Anticonvulsant activity in albino CF1 mouse assessed as protection against maximal electroshock-induced seizures at 100 mg/kg, ip after 2 hrs; assay type: functional, organism-based
[31] = system: Mus musculus; test: Anticonvulsant activity in albino CF1 mouse assessed as protection against maximal electroshock-induced seizures at 30 mg/kg, ip after 0.5 hrs; assay type: functional, organism-based
[32] = Protective index, ratio of TD50 for neurotoxicity in ip dosed albino CF1 mouse to ED50 for anticonvulsant activity in ip dosed […] metrazol-induced seizure albino CF1 mouse model; assay type: toxicity, organism-based; conditions: in vivo, read-out: Ratio TD50/ED50
[33] = system: Mus musculus; test: Neurotoxicity in albino CF1 mouse assessed as behavioral impairment at 300 mg/kg, ip after 2 hrs by rotorod test; assay type: toxicity, organism-based; conditions: in vivo
[34] = system: Rattus norvegicus; test: Anticonvulsant activity in albino Sprague-Dawley rat assessed as protection against maximal electroshock-induced seizures at 30 mg/kg, po after 0.5 hrs; assay type: functional, organism-based
[35] = Protective index, ratio of TD50 for neurotoxicity in ip dosed albino Sprague-Dawley rat to ED50 for anticonvulsant activity in ip dosed maximal electroshock-induced seizure albino Sprague-Dawley rat model; assay type: toxicity, organism-based; conditions: in vivo, read-out: Ratio TD50/ED50
[36] = system: Rattus norvegicus; test: Anticonvulsant activity in albino Sprague-Dawley rat assessed as protection against maximal electroshock-induced seizures at 30 mg/kg, ip after 0.5 hrs; assay type: functional, organism-based
[37] = system: Mus musculus; test: Anticonvulsant activity in ip dosed albino CF1 mouse assessed as protection against subcutaneous metrazol-induced seizures by measuring time to peak effect; assay type: functional
[38] = system: Mus musculus; test: Neurotoxicity in albino CF1 mouse assessed as behavioral impairment at 30 mg/kg, ip after 2 hrs by rotorod test; assay type: toxicity, organism-based; conditions: in vivo
[39] = system: Mus musculus; test: Anticonvulsant activity in ip dosed albino CF1 mouse assessed as protection against maximal electroshock-induced seizures; assay type: functional
[40] = Protective index, ratio of TD50 for neurotoxicity in ip dosed albino CF1 mouse to ED50 for anticonvulsant activity in ip dosed 6 Hz current-induced seizure albino CF1 mouse model; conditions: in vivo
[41] = system: Rattus norvegicus; test: Anticonvulsant activity in albino Sprague-Dawley rat assessed as protection against maximal electroshock-induced seizures at 30 mg/kg, ip after 2 hrs; assay type: functional, organism-based
[42] = system: Mus musculus; test: Anticonvulsant activity in albino CF1 mouse assessed as protection against 32 mA current-induced seizure at 300 mg/kg, ip after 0.5 hrs by 6 Hz psychomotor test; assay type: functional, organism-based
[43] = Protective index, ratio of TD50 for neurotoxicity in ip dosed albino CF1 mouse to ED50 for anticonvulsant activity in ip dosed maximal electroshock-induced seizure albino CF1 mouse model; assay type: toxicity, organism-based; conditions: in vivo, read-out: Ratio TD50/ED50
[44] = system: Rattus norvegicus; test: Anticonvulsant activity in albino Sprague-Dawley rat assessed as protection against maximal electroshock-induced seizures at 30 mg/kg, ip after 1 hr; assay type: functional, organism-based
[45] = system: Rattus norvegicus; test: Neurotoxicity in albino Sprague-Dawley rat assessed as behavioral impairment at 30 mg/kg, ip after 1 hr by rotorod test; assay type: toxicity, organism-based; conditions: in vivo
[46] = system: Mus musculus; test: Anticonvulsant activity in albino CF1 mouse assessed as protection against 44 mA current-induced seizure at 50 mg/kg, ip after 0.25 hrs by 6 Hz psychomotor test; assay type: functional, organism-based
[47] = system: Mus musculus; test: Anticonvulsant activity in albino CF1 mouse assessed as protection against 32 mA current-induced seizure at 30 mg/kg, ip after 0.5 hrs by 6 Hz psychomotor test; assay type: functional, organism-based
[48] = system: Mus musculus; test: Anticonvulsant activity in albino CF1 mouse assessed as protection against maximal electroshock-induced seizures at 30 mg/kg, ip after 2 hrs; assay type: functional, organism-based
[49] = system: Mus musculus; test: Anticonvulsant activity in albino CF1 mouse assessed as protection against 32 mA current-induced seizure at 100 mg/kg, ip after 2 hrs by 6 Hz psychomotor test; assay type: functional, organism-based
[50] = system: Mus musculus; test: Neurotoxicity in albino CF1 mouse assessed as behavioral impairment at 50 mg/kg, ip after 0.25 hrs by rotorod test; assay type: toxicity, organism-based; conditions: in vivo
[51] = system: Mus musculus; test: Neurotoxicity in albino CF1 mouse assessed as behavioral impairment at 50 mg/kg, ip after 2 hrs by rotorod test; assay type: toxicity, organism-based; conditions: in vivo
[52] = system: Mus musculus; test: Anticonvulsant activity in albino CF1 mouse assessed as protection against 32 mA current-induced seizure at 100 mg/kg, ip after 0.5 hrs by 6 Hz psychomotor test; assay type: functional, organism-based
[53] = system: Mus musculus; test: Neurotoxicity in albino CF1 mouse assessed as behavioral impairment at 50 mg/kg, ip after 1 hr by rotorod test; assay type: toxicity, organism-based; conditions: in vivo
[54] = system: Mus musculus; test: Anticonvulsant activity in albino CF1 mouse assessed as protection against maximal electroshock-induced seizures at 300 mg/kg, ip after 0.5 hrs; assay type: functional, organism-based
[55] = system: Mus musculus; test: Anticonvulsant activity in albino CF1 mouse assessed as protection against 32 mA current-induced seizure at 300 mg/kg, ip after 2 hrs by 6 Hz psychomotor test; assay type: functional, organism-based

SMILES: CCCC(CC)OC(=O)NCCCn1ccnc1 (stereo not drawn)
- Activity [1]: Non-toxic
- selectivity ratio [2]: 1
- Activity [3]: Non-toxic
- TD50 [4]: 92 mg/kg
- ED50 [5]: > 92 mg/kg
- Time [6]: 0.25 h
- ED50 [7]: 135 mg/kg
- Activity [8]: Active
- Time [9]: 0.5 h
- Activity [10]: inactive
- ED50 [11]: > 50 mg/kg
- Time [12]: 0.5 h
- Time [13]: 0.25 h
- Activity [14]: Non-toxic
- Activity [15]: Active
- Activity [16]: Non-toxic
- ED50 [17]: 17 mg/kg
- Activity [18]: inactive
- Activity [19]: Non-toxic
- Activity [20]: Non-toxic
- Activity [21]: Non-toxic
- Activity [22]: Non-toxic
- TD50 [23]: 86 mg/kg
- Activity [24]: Non-toxic
- Activity [25]: Non-toxic
- Activity [26]: inactive
- Activity [27]: Toxic
- Activity [28]: Toxic
- Activity [29]: Active
- Activity [30]: Active
- Activity [31]: Active
- selectivity ratio [32]: 1.7
- Activity [33]: Toxic
- Activity [34]: inactive
- selectivity ratio [35]: 5.4
- Activity [36]: Active
- Time [37]: 0.5 h
- Activity [38]: Non-toxic
- ED50 [39]: 28 mg/kg
- selectivity ratio [40]: 0.64
- Activity [41]: Active
- Activity [42]: Active
- selectivity ratio [43]: 3.1
- Activity [44]: Active
- Activity [45]: Non-toxic

SMILES: CCCC(CCC)COC(=O)NCCCn1ccnc1
- Activity [1]: Non-toxic
- selectivity ratio [2]: 1
- Activity [3]: Non-toxic
- TD50 [4]: 87 mg/kg
- Activity [46]: inactive
- ED50 [5]: > 88 mg/kg
- Time [6]: 0.25 h
- ED50 [7]: 32 mg/kg
- Activity [8]: Active
- Time [9]: 0.5 h
- Activity [47]: inactive
- Activity [10]: inactive
- ED50 [11]: > 70 mg/kg
- Time [12]: 0.5 h
- Activity [48]: inactive
- Time [13]: 0.25 h
- Activity [14]: Non-toxic
- Activity [16]: Non-toxic
- ED50 [17]: 12 mg/kg
- Activity [18]: inactive
- Activity [19]: Non-toxic
- Activity [49]: Active
- Activity [50]: Non-toxic
- Activity [22]: Non-toxic
- TD50 [23]: 65 mg/kg
- Activity [24]: Non-toxic
- Activity [51]: Non-toxic
- Activity [25]: Non-toxic
- Activity [26]: inactive
- Activity [27]: Toxic
- Activity [29]: Active
- Activity [52]: Active
- Activity [53]: Non-toxic
- Activity [54]: Active
- selectivity ratio [32]: 0.9
- Activity [55]: Active
- Activity [33]: Toxic
- Activity [34]: inactive
- selectivity ratio [35]: 7.3
- Activity [36]: Active
- Time [37]: 0.5 h
- Activity [38]: Non-toxic
- ED50 [39]: 18 mg/kg
- selectivity ratio [40]: 2
- Activity [41]: inactive
- Activity [42]: Active
- selectivity ratio [43]: 3.3
- Activity [45]: Non-toxic
